Assay results taken from publication PMC5617480 (Oncotarget, 2017).
Like-named read-outs stand apart in the source and are kept apart here.

Experiments:
Pu27 / G4-Pu27 DNA = test: CD spectroscopy; format: binding; parameters: key to Extent of change at 290―295 nm (%): “—”represents no obvious changes in the peaks; conditions: DNA 10 μM, compound 20 μM; for Extent of change at 250―265 nm (%): given with ↓; for Extent of change at 290―295 nm (%): Pu27 (G4-Pu27)
Method: We asked whether chiral platinum(II) complexes 4–6 have the ability to bind to G-quadruplex DNA. To address this, FRET assays, CD spectroscopy, G4-FID assays, and fluorescence titration analysis were performed. […] For G4-HTG21, the ^G4DC50 values of complexes 4–6 were 1.23, 1.26 and 0.99 μM, respectively; while, for G4-Pu27, the ^G4DC50 values were 1.01, 0.89, and 0.82 μM, respectively. In addition, the ^ctDNADC50/^G4DC50 ratio of the HTG21 and Pu27 G4s treated with complexes 4–6 was in the range of 50.54-90.65 and 71.56-110.67 folds, respectively. To further evaluate the binding ability of complexes 4–6 to Pu27 and HTG21G4s, CD spectroscopy and fluorescence titration analysis were performed. […] The quenching ability of complexes 4–6 to HTG21 and Pu27 G4 DNA fluorescence can be quantitatively estimated by their respective quenching constant (Kq), which was derived from the Stern-Volmer quenching equation. […] Finally, the selective binding of complexes 4–6 towards G4 DNA was analyzed by FRET-melting assays. […] In contrast, the ΔTm value for the F32T+H20M duplex DNA in the presence of complexes 4–6 was 1.18, 1.34, and 0.78 °C under the same conditions (Figure 4A). Altogether, our data indicated complexes 4–6, especially complex 6, is the best binder to G4 DNA, which caused DNA complex displaying the highest thermodynamic stability.
www.impactjournals.com/oncotarget/ Oncotarget, Supplementary Materials 2017 […]
Supplementary Figure 23: CD spectra of Pu27 DNA (10 μM) in the absence of K+ upon addition of compounds (20 μM).

c-kit-2 = test: FID assay; format: binding; conditions: for c-kit-2DC50: FID; for ctDNADC50/c-kit-2DC50: FID selectivity ratio
c-kit-1 [1] = test: FID assay; format: binding; conditions: for c-kit-1DC50: FID; for ctDNADC50/c-kit-1DC50: FID selectivity ratio
BEL-7404 cells = test: Apoptosis analysis (annexin V-FITC/PI flow cytometry); format: cell-based, human; conditions: BEL-7404, 10 μM, 24 h; untreated 6.1%
Method: Platinum(II)-based drugs were widely used in anticancer chemotherapies, therefore, we performed experiments to test the potency of chiral platinum(II) complexes 4–6 for inducing senescence and apoptosis in BEL-7404 cells. […] We next investigated the effect of complexes 4–6 on the induction of apoptosis. BEL-7404 cells were incubated with complexes 4 (10 and 20 μM), 5 (10 and 20 μM) and 6 (5, 10 and 20 μM) for 24 h, respectively, and then these cells staining with PI and Annexin-V-FITC were determined by flow cytometry (Figure 3A and Supplementary Figure 18). As shown in Figure 3A and Supplementary Figure 18, after treated of complexes 4–6 with 10 μM for 24 h, the percentage of apoptotic cells (including early-stage and late-stage, Q2+Q4) was 13.1%, 7.0% and 25.4%, respectively, whereas the normal cells was only 6.1%. We further investigated the ability of complexes 4–6 (5, 10 and 20 μM) to induce BEL-7404 cell cycle arrest (Figure 3B and Supplementary Figure 19). Cells were treated with complexes 4–6 at 10 μM for 48 h, the cell cycle arrest was determined by using flow cytometry. […]
Apoptosis analysis c-myc antibody, or anti-β-actin primary antibody and the Apoptosis was detected by flow cytometric analysis corresponding secondary antibody were used to detect of annexin V staining. […] Then, cells were incubated with annexin V-FITC and PI for 1.0 h at Staining for SA-β-Gal activity was carried out room temperature in the dark and immediately analyzed according to Moore and Chen reports. […] The data are presented as biparametric After the long-term incubation with complexes 4–6, the dot plots showing PI red fluorescence vs annexin V-FITC growth medium was aspirated and the BEL-7404 cells green fluorescence. were fixed in 2% formaldehyde/0.2% glutaraldehyde for 15.0 min at room temperature. […] Finally, the extraction, RT-PCR, and the selective binding to G4s by BEL-7404 cell cycle was determined with FACS Calibur complexes 4–6 was according to the our previous reported flow cytometer (BD) and analyzed using Cell Quest. […]

c-kit-1 [2] = test system: c-kit-1; parameters: method as in earlier work; conditions: ref [1], cited from earlier work; for ctDNADC50/c-kit-1DC50: FID selectivity ratio; for c-kit-1DC50: FID
ctDNA = test system: ctDNA; parameters: method as in earlier work; conditions: ref [1], cited from earlier work; for ctDNADC50/ctDNADC50: FID selectivity ratio; for ctDNADC50: FID

Compound: cis-[PtCl2(S-(–)-FOA)] [complex 6]
- Extent of change at 250―265 nm (%) (Pu27 / G4-Pu27 DNA; G4-Pu27 (presence of K+)): 76.23%
- Extent of change at 290―295 nm (%) (Pu27 / G4-Pu27 DNA): —
- Extent of change at 250―265 nm (%) (Pu27 / G4-Pu27 DNA; Pu27 (absence of K+)): 80.88%
- c-kit-2DC50 (c-kit-2): 4.78 µM
- ctDNADC50/c-kit-2DC50 (c-kit-2): 18.98
- c-kit-1DC50 (c-kit-1 [1]): 1.75 µM
- ctDNADC50/c-kit-1DC50 (c-kit-1 [1]): 51.85
- percentage of apoptotic cells (early-stage and late-stage, Q2+Q4) (BEL-7404 cells): 25.4%

Compound: O=C(NC[C@H](O)CO)c1cnc2c3c(cccc13)-c1ccccc1C2=O.[Cl-].[Cl-].[Pt+2] [ligand 3, S-(–)-FOA]
- ctDNADC50/c-kit-1DC50 (c-kit-1 [2]): 36.66
- c-kit-1DC50 (c-kit-1 [2]): 2.45 µM
- ctDNADC50/ctDNADC50 (ctDNA): 1.00
- ctDNADC50 (ctDNA): 89.82 µM

Compound: cis-[PtCl2(R-(+)-FOA)] [complex 5]
- Extent of change at 250―265 nm (%) (Pu27 / G4-Pu27 DNA; G4-Pu27 (presence of K+)): 57.01%
- Extent of change at 290―295 nm (%) (Pu27 / G4-Pu27 DNA): —
- Extent of change at 250―265 nm (%) (Pu27 / G4-Pu27 DNA; Pu27 (absence of K+)): 62.63%
- c-kit-2DC50 (c-kit-2): 3.08 µM
- ctDNADC50/c-kit-2DC50 (c-kit-2): 20.68
- c-kit-1DC50 (c-kit-1 [1]): 23.89 µM
- ctDNADC50/c-kit-1DC50 (c-kit-1 [1]): 2.67
- percentage of apoptotic cells (early-stage and late-stage, Q2+Q4) (BEL-7404 cells): 7.0%

Compound: O=C(NC[C@@H](O)CO)c1cnc2c3c(cccc13)-c1ccccc1C2=O.[Cl-].[Cl-].[Pt+2] [ligand 2, R-(+)-FOA]
- ctDNADC50/c-kit-1DC50 (c-kit-1 [2]): < 0.40
- c-kit-1DC50 (c-kit-1 [2]): > 100 µM
- ctDNADC50/ctDNADC50 (ctDNA): 1.00
- ctDNADC50 (ctDNA): 39.98 µM

Compound: cis-[PtCl2(R/S-(±)-FOA)] [complex 4]
- Extent of change at 250―265 nm (%) (Pu27 / G4-Pu27 DNA; G4-Pu27 (presence of K+)): 67.47%
- Extent of change at 290―295 nm (%) (Pu27 / G4-Pu27 DNA): —
- Extent of change at 250―265 nm (%) (Pu27 / G4-Pu27 DNA; Pu27 (absence of K+)): 72.16%
- c-kit-2DC50 (c-kit-2): 2.48 µM
- ctDNADC50/c-kit-2DC50 (c-kit-2): 30.59
- c-kit-1DC50 (c-kit-1 [1]): 1.45 µM
- ctDNADC50/c-kit-1DC50 (c-kit-1 [1]): 52.32
- percentage of apoptotic cells (early-stage and late-stage, Q2+Q4) (BEL-7404 cells): 13.1%

Compound: O=C(NCC(O)CO)c1cnc2c3c(cccc13)-c1ccccc1C2=O.[Cl-].[Cl-].[Pt+2] (racemic) [ligand 1, R/S-(±)-FOA]
- ctDNADC50/c-kit-1DC50 (c-kit-1 [2]): 0.96
- c-kit-1DC50 (c-kit-1 [2]): 66.35 µM
- ctDNADC50/ctDNADC50 (ctDNA): 1.00
- ctDNADC50 (ctDNA): 63.96 µM
